According to PubChem BioAssay AID977621 (Broad Institute, 2014):
Records with an inconclusive call do not appear. Active and inactive are the calls of the source.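 How the source made its calls: active means Wild-type ribosome reporter drop at least double the humanized mutant ribosome reporter drop, growth loss under a set limit; inconclusive means no clear call, values can overlap the other calls; inactive means the rest.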

System: E. coli wild-type GFP strain growth, fluorescence, 24 h
Test: growth inhibition of wild-type GFP E. coli, dose response, H69 mutant RFP, cherry-pick (AID 977621);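 further: wild-type GFP and H69 mutant RFP strains grown together 50/50 in each well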
[1] = E. coli mixed culture, 24 h, measured here: total growth OD600, test 2

O=C(COn1nnc2ccc(C(F)(F)F)cc21)Nc1c(Cl)cccc1Cl
AC50: > 100 µM (inactive)

COC(=O)c1cc2ccccc2n1S(=O)(=O)c1ccccc1
AC50 [1]: > 100 µM

CCCCNc1ccc2c(c1)OC[C@@H](Cc1ccccc1)NS2(=O)=O
AC50: > 100 µM (inactive)
AC50 [1]: 32.4 µM

C=CCN(CC=C)C(=O)c1ccc2nc(Cc3ccc(OC)c(OC)c3)oc2c1
AC50: > 100 µM (inactive)
AC50 [1]: > 100 µM

CSc1nc(SCCN(C)C)c2c3c(sc2n1)COC(C)(C)C3
AC50: > 100 µM (inactive)
AC50 [1]: > 100 µM

CC(C)Oc1ccc(C(=O)Nc2cccc3cccnc23)cc1
AC50 [1]: > 100 µM

CN(Cc1c(F)cccc1Cl)C(=O)c1ccc(NS(=O)(=O)c2ccc3[nH]c(=O)[nH]c3c2)cc1
AC50: > 100 µM (inactive)

CN(c1ccc(C(=O)NCc2cccs2)cc1)S(=O)(=O)c1ccccc1
AC50 [1]: < 0.6 µM

O=S(=O)(Nc1cccc(-c2ccc(N3CCCCCC3)nn2)c1)c1ccc(F)cc1
AC50: > 100 µM (inactive)

COc1ccc(C2=Nc3ccccc3NC(=O)C2N(C(=O)c2ccnc3ccccc23)c2ccccc2)cc1 (configuration not stated)
AC50: > 100 µM (inactive)
AC50 [1]: 34 µM

COc1cccc(NC(=O)CN(C)CC(=O)Nc2ccc(Br)cc2)c1
AC50: > 100 µM (inactive)

N#Cc1ccsc1NC(=O)CSc1nnnn1-c1ccc(O)cc1
AC50: > 100 µM (inactive)

Cc1c(C(=O)N(Cc2ccc(F)cc2)C2CCS(=O)(=O)C2)oc2ccccc12 (configuration not stated)
AC50: > 100 µM (inactive)

COCCNc1cc(-c2ccccc2)nc2cc(-c3cccc(F)c3)nn12
AC50: > 100 µM (inactive)

Cc1noc(C)c1NC(=O)Nc1ccc2c(c1)C(=O)N([C@@H](C)CO)C[C@H](C)[C@H](CN(C)C(=O)Nc1ccc3c(c1)OCO3)OCCCC[C@H](C)O2
AC50: > 100 µM (inactive)

CCOC(=O)C(C)Sc1nc(N2CCOCC2)c2c(c1C#N)CC(C)(C)OC2 (configuration not stated)
AC50 [1]: > 100 µM

Cc1ccc2oc(C(=O)N(CCO)Cc3ccccc3)c(C)c2c1
AC50: > 100 µM (inactive)
AC50 [1]: 32.4 µM

O=C1CSC(c2cccnc2)N1Cc1ccc(Cl)c(Cl)c1 (configuration not stated)
AC50: > 100 µM (inactive)
AC50 [1]: > 100 µM

Cc1ccc(NC(=O)C2CCCN(c3ncnc4c3nc3n4CCCCC3)C2)cc1Cl (configuration not stated)
AC50 [1]: > 100 µM

O=S1(=O)c2ccc(Br)cc2OCCC2CCCCN21 (configuration not stated)
AC50: > 100 µM (inactive)
AC50 [1]: > 100 µM

Cc1csc2c(N3CCC(C(=O)O)CC3)ncnc12
AC50: > 100 µM (inactive)

O=C(Nc1cccc(Cl)c1)N1C[C@H]2[C@@H](c3ccccc31)[C@@H](CO)N2C(=O)c1ccncc1
AC50: > 100 µM (inactive)

COc1ccc(OCCC(=O)OCC(=O)NCCC2=CCCCC2)cc1
AC50 [1]: > 100 µM

COc1ccc(OC)c(S(=O)(=O)Nc2cccc3ccccc23)c1
AC50: > 100 µM (inactive)

O=C(Nc1ccc(F)c(Cl)c1)C1CC2CCC1C2 (configuration not stated)
AC50 [1]: > 100 µM

NC(=O)CSc1nc2cc([N+](=O)[O-])ccc2n1-c1cccc(C(F)(F)F)c1
AC50: > 100 µM (inactive)

COC(=O)c1c(C)oc(C)c1S(=O)(=O)Nc1ccc(C(C)C)cc1
AC50: > 100 µM (inactive)
AC50 [1]: 51.5 µM

CCN(C(=O)COC(=O)c1cn(-c2ccccc2)nc1-c1ccccc1)C1CCS(=O)(=O)C1 (configuration not stated)
AC50 [1]: > 100 µM

CCSc1nc2ccccc2c(=O)n1Cc1ccc(F)cc1
AC50: > 100 µM (inactive)
AC50 [1]: 49.4 µM

COC(=O)[C@H](Cc1c[nH]c2ccccc12)NCc1cccc(B(O)O)c1
AC50: > 100 µM (inactive)
AC50 [1]: > 100 µM

O=S1(=O)N[C@H](Cc2ccccc2)COc2cc(N3CCSCC3)ccc21
AC50 [1]: > 100 µM

COc1ccc(C(=O)NCCC2=CCCCC2)cc1[N+](=O)[O-]
AC50 [1]: > 100 µM

CN(C)S(=O)(=O)N1CCN(c2ccccc2Cl)CC1
AC50 [1]: > 100 µM

Cc1[nH]nc2c1C(c1ccc(F)cc1)N(Cc1ccccc1)C2=O (configuration not stated)
AC50: > 100 µM (inactive)

O=C(CN1CCN(S(=O)(=O)c2ccc(Cl)cc2)CC1)Nc1ccc2c(c1)CCC2
AC50 [1]: > 100 µM

O=S(=O)(c1ccc(F)cc1)N1C[C@@H]2N[C@H](C1)C2c1ccc(/C=C/c2ccccc2)cc1 (some centres not stated)
AC50 [1]: 41.3 µM

Cc1nn(-c2ccccc2)c(C)c1CN(C)C(=O)c1ccc(S(=O)(=O)NCc2ccco2)cc1
AC50: > 100 µM (inactive)

O=C(O)CC1(CC(=O)NCc2ccc(-c3cccs3)cc2)CCCCC1
AC50: > 100 µM (inactive)

CCN(c1ccccc1)S(=O)(=O)c1ccc(Cl)c(C(=O)NCc2ccco2)c1
AC50 [1]: 33.8 µM

CCC(C(=O)Nc1ccsc1C(=O)OC)c1ccccc1 (configuration not stated)
AC50 [1]: 49.2 µM

COc1cccc(C(=O)NC(C)c2ccc(Br)cc2)c1 (configuration not stated)
AC50 [1]: > 100 µM

Cc1ccc(CNC(=O)c2ccc(Br)o2)cc1
AC50: > 100 µM (inactive)

CC(C)CN1C(=O)c2ccc(C(=O)Nc3ccncc3)cc2C1=O
AC50: > 100 µM (inactive)
AC50 [1]: > 100 µM

CC(C)=C(c1ccc(Cl)cc1)c1c(N)ncnc1N
AC50: > 100 µM (inactive)

O=C1c2ccccc2S(=O)(=O)c2cc(N3CCC(C(=O)N4CCCCC4)CC3)ccc21
AC50: > 100 µM (inactive)

Cc1nc(SCC(=O)Nc2ccc3c(c2)OCCO3)nc(C)c1C
AC50 [1]: 43.7 µM
